Test results published in ChEMBL document CHEMBL1136880, “Discovery of N-aryl-9-oxo-9H-fluorene-1-carboxamides as a new series of apoptosis inducers using a cell- and caspase-based high-throughput screening assay. 1. Structure-activity relationships of the carboxamide group” (Bioorg Med Chem Lett, 2009).
In brackets after ≈: the same amount, converted by molar mass. Activity calls are given as the source filed them. The rule behind the calls is not given here.

Legend:
T47D [1] = assay: Induction of apoptosis in human T47D cells after 48 hrs; format: functional, cell-based
HCT-116 [2] = assay: Induction of apoptosis in human HCT116 cells after 48 hrs; format: functional, cell-based; details: HCT-116, 48 h
SNU-398 [3] = assay: Induction of apoptosis in human SNU398 cells after 48 hrs; format: functional, cell-based; details: SNU-398, 48 h
T47D [4] = assay: Growth inhibition of human T47D cells after 48 hrs; format: functional
HCT-116 [5] = assay: Growth inhibition of human HCT116 cells after 48 hrs; format: functional; details: HCT-116, 48 h
SNU-398 [6] = assay: Growth inhibition of human SNU398 cells after 48 hrs; format: functional; details: SNU-398, 48 h
HCT-116 [7] = assay: Cell cycle arrest in human HCT116 cells assessed as accumulation at subG1 phase at 2 uM after 48 hrs by flow cytometry; format: functional
HCT-116 [8] = assay: Cell cycle arrest in human HCT116 cells assessed as accumulation at G1 phase at 2 uM after 48 hrs by flow cytometry; format: functional
HCT-116 [9] = assay: Cell cycle arrest in human HCT116 cells assessed as accumulation at S phase at 2 uM after 48 hrs by flow cytometry; format: functional
HCT-116 [10] = assay: Cell cycle arrest in human HCT116 cells assessed as accumulation at G2/M phase at 2 uM after 48 hrs by flow cytometry; format: functional
[11] = Inhibition of tubulin polymerization by DAPI staining method
HCT-116 [12] = assay: Cell cycle arrest in human HCT116 cells assessed as accumulation at subG1 phase at 2 uM after 24 hrs by flow cytometry; format: functional
HCT-116 [13] = assay: Cell cycle arrest in human HCT116 cells assessed as accumulation at G1 phase at 2 uM after 24 hrs by flow cytometry; format: functional
HCT-116 [14] = assay: Cell cycle arrest in human HCT116 cells assessed as accumulation at S phase at 2 uM after 24 hrs by flow cytometry; format: functional
HCT-116 [15] = assay: Cell cycle arrest in human HCT116 cells assessed as accumulation at G2/M phase at 2 uM after 24 hrs by flow cytometry; format: functional
[16] = Solubility in buffer solution containing ethanol:Cremophor:D5W of 12.5:12.5:75; format: physicochemical

SMILES	EC50 (T47D [1]) [nM]	EC50 (HCT-116 [2]) [nM]	EC50 (SNU-398 [3]) [nM]	also measured
O=C(Nc1ccccc1O)c1cccc2c1C(=O)c1ccccc1-2	> 10000	> 10000	> 10000	
Cc1ccncc1NC(=O)c1cccc2c1C(=O)c1ccccc1-2	> 10000	> 10000	> 10000	
O=C(Nc1ccccc1-n1ccnc1)c1cccc2c1C(=O)c1ccccc1-2	> 10000	> 10000	> 10000	
O=C(Nc1cccnc1)c1cccc2c1C(=O)c1ccccc1-2	> 10000	> 10000	> 10000	
O=C(Nc1nccs1)c1cccc2c1C(=O)c1ccccc1-2	> 10000	> 10000	> 10000	
CN1CCN(Cc2ccccc2NC(=O)c2cccc3c2C(=O)c2ccccc2-3)CC1	> 10000	> 10000	> 10000	
Cc1cccnc1NC(=O)c1cccc2c1C(=O)c1ccccc1-2	> 10000	> 10000	> 10000	
COc1cc2c(c(OC)c1OC)-c1ccc(OC)c(=O)cc1[C@@H](NC(C)=O)CC2 [COLCHICINE]				IC50 ([11]; read-out: IC50): 500 nM
Cc1cccc(NC(=O)c2cccc3c2C(=O)c2ccccc2-3)c1	> 10000	> 10000	> 10000	
COc1ccccc1CNC(=O)c1cccc2c1C(=O)c1ccccc1-2	> 10000	> 10000	> 10000	
Cc1ccccc1N(C)C(=O)c1cccc2c1C(=O)c1ccccc1-2	> 10000	> 10000	> 10000	
CC[C@]1(O)C[C@@H]2CN(CCc3c([nH]c4ccccc34)[C@@](C(=O)OC)(c3cc4c(cc3OC)N(C)[C@H]3[C@@](O)(C(=O)OC)[C@H](OC(C)=O)[C@]5(CC)C=CCN6CC[C@]43[C@@H]65)C2)C1 [VINBLASTINE]				IC50 ([11]; read-out: IC50): 500 nM
CC1CCCCC1NC(=O)c1cccc2c1C(=O)c1ccccc1-2 (stereo not given)	> 10000	> 10000	> 10000	
N#Cc1ccccc1NC(=O)c1cccc2c1C(=O)c1ccccc1-2	> 10000	> 10000	> 10000	
Nc1ccccc1NC(=O)c1cccc2c1C(=O)c1ccccc1-2	> 10000	> 10000	> 10000	
O=C(Nc1ccccn1)c1cccc2c1C(=O)c1ccccc1-2	> 10000	> 10000	> 10000	
O=C(Nc1ccccc1-c1nnn[nH]1)c1cccc2c1C(=O)c1ccccc1-2	> 10000	> 10000	> 10000	
CN(C(=O)c1cccc2c1C(=O)c1ccccc1-2)c1ccccc1-n1cccn1	> 10000	> 10000	> 10000	
Cc1cccc(C)c1NC(=O)c1cccc2c1C(=O)c1ccccc1-2	> 10000	> 10000	> 10000	

More lines, main results first:

EC50 (T47D [1]) [nM]	EC50 (HCT-116 [2]) [nM]	EC50 (SNU-398 [3]) [nM]	SMILES	also measured
5300	5200	3900	O=C(Nc1ccccc1N1CCOCC1)c1cccc2c1C(=O)c1ccccc1-2	
3700	> 10000	> 10000	COc1ccc(NC(=O)c2cccc3c2C(=O)c2ccccc2-3)cc1	
470	560	410	O=C(Nc1ccccc1Cl)c1cccc2c1C(=O)c1ccccc1-2	GI50 (T47D [4]): 230 nM; GI50 (HCT-116 [5]): 540 nM; GI50 (SNU-398 [6]): 530 nM
480	2300	1500	O=C(Nc1ccccc1OCF)c1cccc2c1C(=O)c1ccccc1-2	
2300	2700	2200	O=C(Nc1ccccc1Br)c1cccc2c1C(=O)c1ccccc1-2	
> 10000	> 10000	> 10000	O=C(NCc1ccccc1Cl)c1cccc2c1C(=O)c1ccccc1-2	
980	1100	640	Cc1ccccc1NC(=O)c1cccc2c1C(=O)c1ccccc1-2	Activity (HCT-116 [7]): 41%; Activity (HCT-116 [8]): 29%; Activity (HCT-116 [9]): 11%; Activity (HCT-116 [10]): 16%; IC50 [11]: Not Active; GI50 (T47D [4]): 180 nM; GI50 (HCT-116 [5]): 360 nM; GI50 (SNU-398 [6]): 300 nM; Activity (HCT-116 [12]): 8%; Activity (HCT-116 [13]): 32%; Activity (HCT-116 [14]): 10%; Activity (HCT-116 [15]): 48%
1700	1800	1700	O=C(Nc1ccccc1-c1ccccc1)c1cccc2c1C(=O)c1ccccc1-2	GI50 (T47D [4]): 210 nM; GI50 (HCT-116 [5]): 580 nM; GI50 (SNU-398 [6]): 350 nM
4600	> 10000	> 10000	Cc1ccc(NC(=O)c2cccc3c2C(=O)c2ccccc2-3)cc1	
980	1200	830	CN(C)c1ccccc1NC(=O)c1cccc2c1C(=O)c1ccccc1-2	solubility [16]: 6100 µg/mL (≈ 17.8 mM)
2900	1600	960	CCOc1ccccc1NC(=O)c1cccc2c1C(=O)c1ccccc1-2	GI50 (T47D [4]): 450 nM; GI50 (HCT-116 [5]): 400 nM; GI50 (SNU-398 [6]): 270 nM
5900	6300	5500	O=C(Nc1ccccc1-n1cccc1)c1cccc2c1C(=O)c1ccccc1-2	
4400	> 10000	> 10000	O=C(Nc1ccccc1)c1cccc2c1C(=O)c1ccccc1-2	
3500	3600	4400	[N-]=[N+]=Nc1ccccc1NC(=O)c1cccc2c1C(=O)c1ccccc1-2	
2800	2600	2100	O=C(Nc1ccccc1N1CCCCC1)c1cccc2c1C(=O)c1ccccc1-2	
620	7500	4900	COc1ccccc1NC(=O)c1cccc2c1C(=O)c1ccccc1-2	
1400	1300	1100	O=C(Nc1ccccc1-n1cccn1)c1cccc2c1C(=O)c1ccccc1-2	Activity (HCT-116 [7]): Active; Activity (HCT-116 [8]): Active; Activity (HCT-116 [9]): Active; Activity (HCT-116 [10]): Active; solubility [16]: 6100 µg/mL (≈ 16.7 mM); IC50 [11]: Not Active; GI50 (T47D [4]): 160 nM; GI50 (HCT-116 [5]): 1100 nM; GI50 (SNU-398 [6]): 780 nM; Activity (HCT-116 [12]): Active; Activity (HCT-116 [13]): Active; Activity (HCT-116 [14]): Active; Activity (HCT-116 [15]): Active
1800	> 10000	> 10000	O=C(Nc1ccccc1F)c1cccc2c1C(=O)c1ccccc1-2	
4700	10700	7200	O=C(Nc1ccccc1CBr)c1cccc2c1C(=O)c1ccccc1-2	
2100	2200	1300	Cc1ccccc1C(=O)Nc1cccc2c1C(=O)c1ccccc1-2	
1400	940	710	CN(C)Cc1ccccc1NC(=O)c1cccc2c1C(=O)c1ccccc1-2	
2400	520	340	COC(=O)c1ccccc1NC(=O)c1cccc2c1C(=O)c1ccccc1-2	GI50 (T47D [4]): 180 nM; GI50 (HCT-116 [5]): 480 nM; GI50 (SNU-398 [6]): 310 nM
2500	5500	2600	O=C(Nc1ccccc1[N+](=O)[O-])c1cccc2c1C(=O)c1ccccc1-2	
